System: not listed separately
Assay: Cytotoxicity against rat R28 cells assessed as decrease in cellular ATP content incubated for 24 hrs by CellTiter-Lumi Plus cell viability assay
Type: toxicity, cell-based
Conditions: r28, 24 h

SMILES	Activity
CC(C)(O)[C@H]1CC[C@@](C)([C@H]2CC[C@]3(C)[C@@H]2[C@H](O)C[C@@H]2[C@@]4(C)CC[C@H](OC(=O)CCC(=O)NCCCN)C(C)(C)[C@@H]4CC[C@]23C)O1	Non-Toxic
CC(C)(O)[C@@H]1CC[C@@](C)([C@H]2CC[C@]3(C)[C@@H]2[C@H](O)C[C@@H]2[C@@]4(C)Cc5sc(NC(=O)CCCSSCCCC(=O)O)nc5C(C)(C)[C@@H]4CC[C@]23C)O1	Non-Toxic
CC(C)(O)[C@@H]1CC[C@@](C)([C@H]2CC[C@]3(C)[C@@H]2[C@H](O)C[C@@H]2[C@@]4(C)CC[C@H](O)C(C)(C)[C@@H]4CC[C@]23C)O1	Non-Toxic
CC(C)(O)[C@@H]1CC[C@@](C)([C@H]2CC[C@]3(C)[C@@H]2[C@H](O)C[C@@H]2[C@@]4(C)CC[C@H](OC(=O)CCC(=O)NCCCN)C(C)(C)[C@@H]4CC[C@]23C)O1	Non-Toxic
CCOC(=O)c1noc2c1C[C@]1(C)[C@H]3C[C@@H](O)[C@@H]4[C@@H]([C@]5(C)CC[C@@H](C(C)(C)O)O5)CC[C@@]4(C)[C@]3(C)CC[C@H]1C2(C)C	Non-Toxic
CC(C)(O)[C@H]1CC[C@@](C)([C@H]2CC[C@]3(C)[C@@H]2[C@H](O)C[C@@H]2[C@@]4(C)Cc5sc(N)nc5C(C)(C)[C@@H]4CC[C@]23C)O1	Non-Toxic
CC(C)(O)[C@H]1CC[C@@](C)([C@H]2CC[C@]3(C)[C@@H]2[C@H](O)C[C@@H]2[C@@]4(C)CC[C@H](O)C(C)(C)[C@@H]4CC[C@]23C)O1	Non-Toxic
CC(C)(O)[C@H]1CC[C@@](C)([C@H]2CC[C@]3(C)[C@@H]2[C@H](O)C[C@@H]2[C@@]4(C)CC[C@H](OC(=O)CCC(=O)O)C(C)(C)[C@@H]4CC[C@]23C)O1	Non-Toxic
CC(C)(O)[C@@H]1CC[C@@](C)([C@H]2CC[C@]3(C)[C@@H]2[C@H](O)C[C@@H]2[C@@]4(C)CC[C@H](OC(=O)CCC(=O)Nc5ccc(N)cc5)C(C)(C)[C@@H]4CC[C@]23C)O1	Non-Toxic
CC(C)(O)[C@H]1CC[C@@](C)([C@H]2CC[C@]3(C)[C@@H]2[C@H](O)C[C@@H]2[C@@]4(C)Cc5sc(NC(=O)CCCSSCCCC(=O)O)nc5C(C)(C)[C@@H]4CC[C@]23C)O1	Non-Toxic
CC(C)(O)[C@@H]1CC[C@@](C)([C@H]2CC[C@]3(C)[C@@H]2[C@H](O)C[C@@H]2[C@@]4(C)Cc5sc(NC(=O)c6ccccc6C(=O)O)nc5C(C)(C)[C@@H]4CC[C@]23C)O1	Non-Toxic
CC(C)(O)[C@H]1CC[C@@](C)([C@H]2CC[C@]3(C)[C@@H]2[C@H](O)C[C@@H]2[C@@]4(C)Cc5sc(NC(=O)CCCC(=O)O)nc5C(C)(C)[C@@H]4CC[C@]23C)O1	Non-Toxic
CC(C)(O)[C@H]1CC[C@@](C)([C@H]2CC[C@]3(C)[C@@H]2[C@H](O)C[C@@H]2[C@@]4(C)Cc5c(C(=O)NCCCCCCN)noc5C(C)(C)[C@@H]4CC[C@]23C)O1	Non-Toxic
CC(C)(O)[C@@H]1CC[C@@](C)([C@H]2CC[C@]3(C)[C@@H]2[C@H](O)C[C@@H]2[C@@]4(C)Cc5c(C(=O)Nc6ccc(N)cc6)noc5C(C)(C)[C@@H]4CC[C@]23C)O1	Non-Toxic
CC(C)(O)[C@@H]1CC[C@@](C)([C@H]2CC[C@]3(C)[C@@H]2[C@H](O)C[C@@H]2[C@@]4(C)Cc5c(C(=O)NCCCCN)noc5C(C)(C)[C@@H]4CC[C@]23C)O1	Non-Toxic
CC(C)(O)[C@@H]1CC[C@@](C)([C@H]2CC[C@]3(C)[C@@H]2[C@H](O)C[C@@H]2[C@@]4(C)CC[C@H](OC(=O)CCC(=O)Nc5ccccc5N)C(C)(C)[C@@H]4CC[C@]23C)O1	Non-Toxic
CC(C)(O)[C@H]1CC[C@@](C)([C@H]2CC[C@]3(C)[C@@H]2[C@H](O)C[C@@H]2[C@@]4(C)CC[C@H](OC(=O)CCC(=O)Nc5ccc(N)cc5)C(C)(C)[C@@H]4CC[C@]23C)O1	Non-Toxic

SMILES	Activity
CC(C)(O)[C@@H]1CC[C@@](C)([C@H]2CC[C@]3(C)[C@@H]2[C@H](O)C[C@@H]2[C@@]4(C)Cc5sc(NC(=O)CCCC(=O)O)nc5C(C)(C)[C@@H]4CC[C@]23C)O1	Non-Toxic
CC(C)(O)[C@H]1CC[C@@](C)([C@H]2CC[C@]3(C)[C@@H]2[C@H](O)C[C@@H]2[C@@]4(C)Cc5sc(NC(=O)CC(=O)O)nc5C(C)(C)[C@@H]4CC[C@]23C)O1	Non-Toxic
CC(C)(O)[C@@H]1CC[C@@](C)([C@H]2CC[C@]3(C)[C@@H]2[C@H](O)C[C@@H]2[C@@]4(C)CC[C@H](OC(=O)CCC(=O)Nc5cccc(N)c5)C(C)(C)[C@@H]4CC[C@]23C)O1	Non-Toxic
CC(C)(O)[C@@H]1CC[C@@](C)([C@H]2CC[C@]3(C)[C@@H]2[C@H](O)C[C@@H]2[C@@]4(C)Cc5c(C(=O)NCCCCCCN)noc5C(C)(C)[C@@H]4CC[C@]23C)O1	Non-Toxic
CC(C)(O)[C@H]1CC[C@@](C)([C@H]2CC[C@]3(C)[C@@H]2[C@H](O)C[C@@H]2[C@@]4(C)CC[C@H](OC(=O)CCC(=O)Nc5cccc(N)c5)C(C)(C)[C@@H]4CC[C@]23C)O1	Non-Toxic
CC(C)(O)[C@@H]1CC[C@@](C)([C@H]2CC[C@]3(C)[C@@H]2[C@H](O)C[C@@H]2[C@@]4(C)Cc5c(C(=O)NCCCN)noc5C(C)(C)[C@@H]4CC[C@]23C)O1	Non-Toxic
CC(C)(O)[C@@H]1CC[C@@](C)([C@H]2CC[C@]3(C)[C@@H]2[C@H](O)C[C@@H]2[C@@]4(C)CC[C@H](OC(=O)CCC(=O)O)C(C)(C)[C@@H]4CC[C@]23C)O1	Non-Toxic
CC(C)(O)[C@H]1CC[C@@](C)([C@H]2CC[C@]3(C)[C@@H]2[C@H](O)C[C@@H]2[C@@]4(C)CC[C@H](OC(=O)CCC(=O)Nc5ccccc5N)C(C)(C)[C@@H]4CC[C@]23C)O1	Non-Toxic
CC(C)(O)[C@H]1CC[C@@](C)([C@H]2CC[C@]3(C)[C@@H]2[C@H](O)C[C@@H]2[C@@]4(C)Cc5c(C(=O)NCCCN)noc5C(C)(C)[C@@H]4CC[C@]23C)O1	Non-Toxic
CC(C)(O)[C@@H]1CC[C@@](C)([C@H]2CC[C@]3(C)[C@@H]2[C@H](O)C[C@@H]2[C@@]4(C)Cc5sc(N)nc5C(C)(C)[C@@H]4CC[C@]23C)O1	Non-Toxic
CC(C)(O)[C@H]1CC[C@@](C)([C@H]2CC[C@]3(C)[C@@H]2[C@H](O)C[C@@H]2[C@@]4(C)Cc5sc(NC(=O)c6ccccc6C(=O)O)nc5C(C)(C)[C@@H]4CC[C@]23C)O1	Non-Toxic
CC(C)(O)[C@@H]1CC[C@@](C)([C@H]2CC[C@]3(C)[C@@H]2[C@H](O)C[C@@H]2[C@@]4(C)Cc5sc(NC(=O)CC(=O)O)nc5C(C)(C)[C@@H]4CC[C@]23C)O1	Non-Toxic
CC(C)(O)[C@H]1CC[C@@](C)([C@H]2CC[C@]3(C)[C@@H]2[C@H](O)C[C@@H]2[C@@]4(C)Cc5c(C(=O)O)noc5C(C)(C)[C@@H]4CC[C@]23C)O1	Non-Toxic
CC(C)(O)[C@H]1CC[C@@](C)([C@H]2CC[C@]3(C)[C@@H]2[C@H](O)C[C@@H]2[C@@]4(C)Cc5c(C(=O)Nc6ccc(N)cc6)noc5C(C)(C)[C@@H]4CC[C@]23C)O1	Non-Toxic
CCOC(=O)c1noc2c1C[C@]1(C)[C@H]3C[C@@H](O)[C@@H]4[C@@H]([C@]5(C)CC[C@H](C(C)(C)O)O5)CC[C@@]4(C)[C@]3(C)CC[C@H]1C2(C)C	Non-Toxic
CC(C)(O)[C@H]1CC[C@@](C)([C@H]2CC[C@]3(C)[C@@H]2[C@H](O)C[C@@H]2[C@@]4(C)Cc5c(C(=O)NCCCCN)noc5C(C)(C)[C@@H]4CC[C@]23C)O1	Non-Toxic
CC(C)(O)[C@@H]1CC[C@@](C)([C@H]2CC[C@]3(C)[C@@H]2[C@H](O)C[C@@H]2[C@@]4(C)Cc5c(C(=O)O)noc5C(C)(C)[C@@H]4CC[C@]23C)O1	Non-Toxic

System: R28
Assay: Antioxidant activity in rat R28 cells assessed as protection against OGD induced cytotoxicity by measuring cellular ATP level preincubated under OGD condition for 8 hrs followed by reoxygenation for 4 hrs by CellTiter-Lumi Plus cell viability assay
Type: functional, cell-based
Conditions: dose 0.1-40 µM, time 12.0 hrs

SMILES	Activity
CC(C)(O)[C@H]1CC[C@@](C)([C@H]2CC[C@]3(C)[C@@H]2[C@H](O)C[C@@H]2[C@@]4(C)CC[C@H](O)C(C)(C)[C@@H]4CC[C@]23C)O1	Dose-Dependent Effect

Reference: ChEMBL document CHEMBL6071140, “Ocotillol Derivatives Mitigate Retinal Ischemia-Reperfusion Injury by Regulating the Keap1/Nrf2/ARE Signaling Pathway” (J Med Chem, 2024)
